# In PubChem BioAssay (NCI):
#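 These data come from cells grown in 96-well plates and exposed to compound for 48 hours at five concentrations. GI50: concentration for 50% inhibition of growth. The concentration for full growth arrest is given as TGI.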
# Columns and labels:
# Test in all cases: growth of human tumour cells (NCI), 48 h
# [1] = system: SR leukemia
# [2] = system: CAKI-1 renal
# [3] = system: SK-MEL-2 melanoma
# [4] = system: SF-539 CNS
# [5] = system: SNB-19 CNS
# [6] = system: OVCAR-8 ovarian
# [7] = system: HL-60(TB) leukemia
# [8] = system: SNB-75 CNS
# [9] = system: NCI-H460 lung
# [10] = system: EKVX NSCLC
Compound,GI50 [1],TGI [1],GI50 [2],TGI [2],GI50 [3],TGI [3],GI50 [4],TGI [4],GI50 [5],TGI [5],GI50 [6],TGI [6],GI50 [7],TGI [7],GI50 [8],TGI [8],GI50 [9],TGI [9],GI50 [10],TGI [10]
COc1c(CCC[P+](c2ccccc2)(c2ccccc2)c2ccccc2)cc2c(c1OC)OCO2,1.07 µM,15 µM,2.45 µM,7.35 µM,3.03 µM,14.1 µM,2.1 µM,13.7 µM,1.44 µM,12.9 µM,2.66 µM,> 100 µM,0.339 µM,1.48 µM,1.3 µM,5.18 µM,1.45 µM,4.56 µM,3.88 µM,51.1 µM
COc1ccc(-c2cc(=O)c3cc4c(cc3[nH]2)OCO4)c(OC)c1OC,–,70.9 µM,–,> 100 µM,–,> 100 µM,–,> 100 µM,–,> 100 µM,–,> 100 µM,–,> 100 µM,–,82.2 µM,–,> 100 µM,–,> 100 µM
c1cc(-c2cn3ccsc3n2)ccn1,–,> 100 µM,–,> 100 µM,–,> 100 µM,–,> 100 µM,–,> 100 µM,–,> 63.8 µM,–,> 60.1 µM,–,> 100 µM,–,> 100 µM,–,98.7 µM
O=CNc1c(Cl)cc2c(c1Cl)Cc1cc([N+](=O)[O-])ccc1-2,2.61 µM,> 63.1 µM,8.34 µM,> 91.2 µM,27.9 µM,> 86.6 µM,6.15 µM,> 100 µM,16.5 µM,> 100 µM,11.6 µM,> 100 µM,3.21 µM,> 100 µM,2.84 µM,21.5 µM,2.88 µM,39.5 µM,0.359 µM,13.6 µM
O=C(c1ccc(F)cc1)c1cccc(C(=O)c2ccc(F)cc2)n1,–,> 100 µM,–,> 100 µM,–,42.9 µM,–,56.3 µM,–,54 µM,–,> 100 µM,–,> 100 µM,–,22.7 µM,–,> 100 µM,–,> 100 µM
COc1cccc(NC(=O)CC(=O)N2N=C(N(CCC#N)c3ccc(Cl)cc3)CC2c2ccccc2)c1 (configuration not stated),–,> 100 µM,–,> 100 µM,–,> 100 µM,–,> 100 µM,–,> 100 µM,–,> 100 µM,–,> 100 µM,–,> 100 µM,–,> 100 µM,–,> 100 µM
Cc1ccc(C(=O)O/N=C2/CCC/C2=C\c2ccccc2)cc1,–,> 100 µM,–,> 100 µM,–,> 100 µM,–,> 100 µM,–,–,–,> 100 µM,–,> 100 µM,–,> 100 µM,–,> 100 µM,–,> 100 µM
CN(C(=O)C12C3C4C5C3C1(C(=O)O)C5C42)C(C)(C)C (configuration not stated),–,> 100 µM,–,> 100 µM,–,> 100 µM,–,> 100 µM,–,> 100 µM,–,> 100 µM,–,32 µM,–,> 100 µM,–,> 100 µM,–,> 100 µM
COC1(C(=O)N[C@@H](C)c2ccc(-n3cc(F)cn3)nc2)CCC(c2nc(C)cc(Nc3cc(C)[nH]n3)n2)CC1 (some centres not stated),6.14 µM,> 100 µM,0.889 µM,2.23 µM,6.82 µM,23.2 µM,0.314 µM,1.56 µM,2.29 µM,51.4 µM,3.74 µM,25.5 µM,19.5 µM,41.8 µM,0.196 µM,0.848 µM,5.2 µM,18.5 µM,0.688 µM,2.94 µM
CNC(=O)n1ccc2cc(Oc3ccnc(NC(=O)c4ccc(C5CCN(CCO)CC5)cc4)c3)c(OCCOC)cc21,2.27 µM,25 µM,3.08 µM,11.3 µM,8.57 µM,23.2 µM,1.12 µM,2.56 µM,7.47 µM,21.5 µM,4.51 µM,19.5 µM,2.13 µM,4.58 µM,1.84 µM,7.28 µM,3.22 µM,10.2 µM,14.7 µM,29.3 µM
COc1ccccc1NC(=O)C1=C(C)NC(C)=C(C(=O)Nc2ccccc2OC)C1c1ccccc1F,–,> 100 µM,–,> 100 µM,–,> 100 µM,–,> 100 µM,–,> 100 µM,–,> 100 µM,–,> 100 µM,–,62.4 µM,–,> 100 µM,–,> 100 µM
C=CCC1([C@H](C)[C@@H](OC(C)=O)c2cc(OC)c(OC)c(OC)c2)C[C@@H](OC)CCC1=O (some centres not stated),–,91.7 µM,–,> 100 µM,–,38.9 µM,–,30.8 µM,–,–,–,54.2 µM,–,45 µM,–,36 µM,–,62.4 µM,–,76.2 µM
COc1ccc2nc3cc([N+](=O)[O-])ccc3c(NCCCCCN(C)C)c2c1,0.159 µM,14.1 µM,0.306 µM,3.04 µM,0.0208 µM,0.214 µM,0.319 µM,1.66 µM,0.301 µM,1.23 µM,0.214 µM,1.32 µM,0.14 µM,2.52 µM,0.247 µM,1.1 µM,0.0815 µM,1.03 µM,1.59 µM,7.27 µM
CNC(=O)OCc1nc(SC2CCCCO2)n(C)c1COC(=O)NC (configuration not stated),–,> 100 µM,–,> 100 µM,–,> 100 µM,–,> 100 µM,–,> 100 µM,–,> 100 µM,–,> 100 µM,–,> 100 µM,–,> 100 µM,–,> 100 µM
COc1cc(/C=C2\C(=O)N(C(=O)Cc3ccccc3)N=C2C)ccc1O,–,> 100 µM,–,> 100 µM,–,> 100 µM,–,> 100 µM,–,> 100 µM,–,> 100 µM,–,> 100 µM,–,> 100 µM,–,–,–,> 100 µM
COc1cc(Cl)cc(-c2nn(C(=O)NCCN3CCOCC3)cc2-c2ccncc2)c1,5.92 µM,> 100 µM,2.49 µM,18.7 µM,10.9 µM,44.3 µM,4.57 µM,25.9 µM,7.58 µM,> 100 µM,7.61 µM,> 100 µM,3.22 µM,95.1 µM,1.73 µM,8.78 µM,3.81 µM,> 100 µM,5.57 µM,79.9 µM
